Data published in US7833805B2, “Selectively permeable membranes on porous substrates” (University of Cincinnati, priority 2004, dated 2010).

Tests used:
Kv1.5 K+ channels [1] = molecular target: T1, Kv1.5 K+ channels (Homo sapiens, UniProt P22460); assay: Kv1.5 K+ channel vesicles reconstituted in phospholipid-coated leached PLLA membranes, resistance measurement; format: biochemical; settings: 1 μM compound B, KCl, n=8; PL alone 7.39, PL+Kv1.5 vesicles 0.55 MΩ
T1 construct: expressed in transfected cells; host or cells: Ltk- mouse fibroblast cells, stably transfected, dexamethasone-induced; plasma membrane vesicles
Description: (§1) Bilayer formation is studied using PC, PETE and PLLA membranes (area=0.3 cm^2). Phospholipid bilayers are made by adding […] of 3:1 POPS:POPE (40 mg/ml) in n-decane to the membranes and waiting for 30 min. 100 mM KCL/10 mM HEPES (pH 7.4), is then added to both sides of the membrane (150 μl inside insert or well; 200 outside solution) and left for 30 minutes. A multimeter and Ag/AgCl reference electrodes are used to measure the resistance across the phospholipid-coated membranes. When gramicidin D is used, it is mixed with the lipids to a final concentration of 1 μg/ml. 10 μl of the lipid/gramicidin mixture is added to the membranes. After 30 minutes medium is added to both sides of the lipid-coated membrane (both inner and outer wells) and left for another 30 minutes. Resistances of the lipid-coated membranes are measured with two different media bathing the lipid bilayer on both sides: 100 mM KCl/10 mM HEPES (pH 7.4) and 100 mMNMDGCI/10 mM HEPES (pH 7.4). Reconstitution of gramicidin D is also done using the 96-well plastic plate with laser drilled holes and current is measured as described below.
Reconstitution of Kv1.5 K^+ channels is also carried out using lipid coated PLLA membranes (area=0.3 cm2) and resistance is measured as described in the previous section. Effects of compound B are also tested.

Kv1.5 K+ channels [2] = molecular target: T1, Kv1.5 K+ channels; assay: Kv1.5 K+ channel vesicles reconstituted in phospholipid bilayers in 50 μm laser-drilled holes of a 96-well plastic plate, current measurement; format: biochemical
Description: The verified bilayer is incubated with vesicles comprising H/K ATPase or Kv1.5 potassium channels. 3 μl of vesicles is added to each well which was determined to have a verified bilayer. Spontaneous fusion with the bilayer is allowed to proceed for 30 minutes to one hour, at which point H/K ATPase induced acidification or potassium ion currents across the bilayer membrane are measured. A desired amount of […] is added to the well (for example, add 90 μl of 100 mM KCl for […], add 92.5 μl of 100 MM KCl for 750 nM). The well tray is placed back into the holder with the 100 mM KCl and current flow is measured as before. Add a desired amount of a suitable 10 μM inhibitor to achieve a final desired concentration with the final volume of 100 μl. When the gastric proton pump H/K ATPase is reconstituted on the bilayer over the pores, ATP-dependent transport of acid across the bilayer is observed that can be inhibited by 100 μm SCH-28080 (a specific inhibitor of the H/K ATPase). The current is measured as described earlier, after one hour. […] Ion currents are not present when the vesicles lack Kv1.5 or when Kv1.5 vesicles are boiled.
To investigate reconstitution of ion channels, plasma membrane vesicles containing Kv1.5, K^+ channels are prepared from an Ltk^− cell line (mouse fibroblast cells) stably overexpressing Kv1.5 K^+ channels under the control of a dexamethasone promoter as previously described (Matsuno, et al. Biochem. Biophys. Acta 1665 (2004) 184-190). Dexamethasone-specific induction of channel expression is totally specific for Kv1.5 channels. […] A 96-well plastic plate with laser drilled pores varying from 10-100 μm (1/well) is used. Well area is 0.3 cm^2. The phospholipid bilayer is made by adding 5 μl of 40 mg/ml 3:1 POPS:POPE in n-decane to each well. After 30 min 100 mM KCl/20 mM HEPES (pH 7.4) is added to both sides of the bilayer (both inner and outer wells). After a further 30 min, the solution from the inner well is removed and plasma membrane vesicles (5 μl) containing Kv1.5 K^+ channels are added to the lipid coated wells. After 30 min, 100 mM KCl/20 mM HEPES (pH 7.4) is returned to the well and currents across the bilayer are measured with an HS-2A headstage and Gene Clamp 500 amplifier (Axon Instruments, Foster City, Calif.) and filtered at 50 Hz. Voltages ranging from −80 to +70 mV are applied in 10-mV increments for 200 msec and electrical currents are recorded using pCLAMP version 5.5. When indicated, compound B, an inhibitor of Kv1.5 K^+ channels (see U.S. Pat. No. 6,174,908) is added.

[3] = Ion flux across the inventive membrane with gramicidin D as ionophore
[4] = Gramicidin D reconstituted in the phospholipid bilayer in 50 μm holes of the 96-well plastic plate, current measurement; settings: KCl medium, +70 mV
Description: as §1, with “below. […]” for “below.”

[5] = Assay of lipid bilayer formation: resistance across phospholipid-coated porous membranes with gramicidin D
Description: as §1

gastric H/K ATPase [6] = molecular target: T2, gastric H/K ATPase (Oryctolagus cuniculus, UniProt P27112); assay: H+ transport (acidification) by rabbit gastric H/K ATPase vesicles reconstituted in phospholipid-coated PC filters; format: biochemical; settings: 100 μM SCH28080, rabbit gastric vesicles, P<0.02
T2 construct: Hog and stimulated rabbit gastric membrane vesicles are isolated according to methods known in the art; from tissue; host or cells: stimulated rabbit gastric membrane vesicles
Description: (§2) Hog and stimulated rabbit gastric membrane vesicles are isolated according to methods known in the art (Saccomani et al. Biochim. Biophys. Acta 465 (1977) 311-330, Cuppoletti, et al. J. Biol. Chem. 259 (1984) 14952-1 4959). A lipid bilayer is made on 0.4 μm polycarbonate filters (area=0.11 cm^2) in Multiscreen Caco-2 filter plates. […] of 40 mg/ml 3:1 POPS:POPE in n-decane is added to the filter (inner well) and after 30 min 100 mM K-gluconate solution is added to both sides (inner & outer wells). After 2 hrs, resistance is measured with a multimeter and Ag/AgCl electrodes to ensure that a bilayer had formed. The K-gluconate solution in the inner well is removed and 5 μl of hog or stimulated rabbit gastric vesicles are added to the inner well and left for 1 hr. Resistance is then measured in 100 mM K-gluconate, KCL, NaCl and NMDGCI. To measure H^+ transport, 200 μl 10 mM KCL is added to the outer well and 100 μl of 100 mM KCL, 10 mM HEPES pH 7.4 is added to the inner well. pH of the medium in the outer well (pHo) is measured using a PHR-146 pH Electrode (LAZAR Research Labs. Los Angeles, Calif.) and an Accumet pH meter 910 (Fisher, Pittsburgh, Pa.). When the pHo is almost constant, 5 μl 100 mM MGATP solution and 1 μl 10 mg/ml valinomycin are added to the inner well and pHo was followed. […] The change in pHo over time is recorded using AXOTAPE (Union City, Calif.).

[7] = system: gastric proton pump H/K ATPase; assay: Example 1: ATP-dependent transport of acid across the bilayer with reconstituted gastric proton pump; format: biochemical; settings: 100 μm SCH-28080
Description: This example illustrates an embodiment of bilayer formation, membrane transport reconstitution and testing for functionality. The bilayer is formed over pores of a polycarbonate substrate comprising naturally present pores or drilled holes. Millipore micro porous polycarbonates of various pore sizes (0.4, 3, 5, and 8 μm, e.g.) are commercially available, and a multi-well porous plastic plate with 10-100 μm Lenox-laser drilled holes (1/well) is available from Procter & Gamble Co. and is used for stable bilayer formation. Techniques for bilayer preparation are known by those of ordinary skill in the art. […] The bilayer is verified according to the gramicidin-D (a cation selective antibiotic) method wherein electrical resistance is monitored to observe the effect of gramicidin in reducing the resistance of the membrane. Current flow is measured by placing one electrode in the desired well and one in the surrounding liquid outside the well. […]
The verified bilayer is incubated with vesicles comprising H/K ATPase or Kv1.5 potassium channels. 3 μl of vesicles is added to each well which was determined to have a verified bilayer. Spontaneous fusion with the bilayer is allowed to proceed for 30 minutes to one hour, at which point H/K ATPase induced acidification or potassium ion currents across the bilayer membrane are measured. […] The current is measured as described earlier, after one hour. […]

gastric H/K ATPase [8] = molecular target: T3, gastric H/K ATPase (Sus scrofa, UniProt P19156); assay: H+ transport (acidification) by hog gastric H/K ATPase vesicles reconstituted in phospholipid-coated PC filters; format: biochemical
T3 construct: Hog and stimulated rabbit gastric membrane vesicles are isolated according to methods known in the art; from tissue; host or cells: hog gastric membrane vesicles
Description: as §2

T1 sequence (P22460 whole entry): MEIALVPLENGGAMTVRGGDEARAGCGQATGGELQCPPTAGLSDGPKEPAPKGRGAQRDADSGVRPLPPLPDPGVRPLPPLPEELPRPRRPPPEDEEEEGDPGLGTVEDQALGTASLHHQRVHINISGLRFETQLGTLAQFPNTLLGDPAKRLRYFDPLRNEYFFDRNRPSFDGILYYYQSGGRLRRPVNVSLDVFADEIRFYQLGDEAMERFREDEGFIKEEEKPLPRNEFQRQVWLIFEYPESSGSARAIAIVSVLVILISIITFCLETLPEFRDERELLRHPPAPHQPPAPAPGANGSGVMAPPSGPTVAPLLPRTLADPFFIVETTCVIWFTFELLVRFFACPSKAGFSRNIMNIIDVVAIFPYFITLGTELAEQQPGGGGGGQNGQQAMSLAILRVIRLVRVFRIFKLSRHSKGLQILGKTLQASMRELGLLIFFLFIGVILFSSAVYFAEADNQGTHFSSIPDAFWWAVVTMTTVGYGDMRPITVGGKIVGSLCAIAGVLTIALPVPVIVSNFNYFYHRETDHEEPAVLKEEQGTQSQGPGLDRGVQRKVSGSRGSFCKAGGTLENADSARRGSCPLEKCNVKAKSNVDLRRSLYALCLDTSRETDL
T3 sequence (P19156 whole entry): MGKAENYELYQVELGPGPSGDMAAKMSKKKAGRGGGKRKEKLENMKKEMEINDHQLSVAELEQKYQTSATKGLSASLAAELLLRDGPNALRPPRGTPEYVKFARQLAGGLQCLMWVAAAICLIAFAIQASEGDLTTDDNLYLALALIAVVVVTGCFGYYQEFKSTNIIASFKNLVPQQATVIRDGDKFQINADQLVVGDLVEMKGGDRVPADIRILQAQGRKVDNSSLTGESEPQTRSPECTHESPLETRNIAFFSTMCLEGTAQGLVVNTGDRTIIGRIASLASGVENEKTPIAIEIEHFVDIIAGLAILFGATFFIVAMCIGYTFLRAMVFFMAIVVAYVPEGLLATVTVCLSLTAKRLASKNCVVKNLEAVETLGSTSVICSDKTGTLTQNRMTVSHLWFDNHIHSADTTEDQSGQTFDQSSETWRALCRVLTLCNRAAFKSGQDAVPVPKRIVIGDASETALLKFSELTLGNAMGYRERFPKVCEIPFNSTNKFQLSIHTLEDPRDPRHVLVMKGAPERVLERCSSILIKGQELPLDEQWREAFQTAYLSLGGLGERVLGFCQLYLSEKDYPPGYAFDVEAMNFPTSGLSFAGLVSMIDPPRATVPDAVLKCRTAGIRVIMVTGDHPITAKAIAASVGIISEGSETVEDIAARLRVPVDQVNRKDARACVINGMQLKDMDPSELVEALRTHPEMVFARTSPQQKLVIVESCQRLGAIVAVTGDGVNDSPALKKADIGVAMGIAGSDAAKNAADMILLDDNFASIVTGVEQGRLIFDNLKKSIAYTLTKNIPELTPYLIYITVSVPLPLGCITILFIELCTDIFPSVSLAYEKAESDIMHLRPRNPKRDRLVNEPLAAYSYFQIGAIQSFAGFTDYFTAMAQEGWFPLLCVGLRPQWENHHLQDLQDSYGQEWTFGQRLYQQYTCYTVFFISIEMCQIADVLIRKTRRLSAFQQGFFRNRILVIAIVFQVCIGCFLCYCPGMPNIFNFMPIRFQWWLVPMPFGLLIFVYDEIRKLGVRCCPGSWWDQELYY
T3 sequence (P18434 whole entry partner): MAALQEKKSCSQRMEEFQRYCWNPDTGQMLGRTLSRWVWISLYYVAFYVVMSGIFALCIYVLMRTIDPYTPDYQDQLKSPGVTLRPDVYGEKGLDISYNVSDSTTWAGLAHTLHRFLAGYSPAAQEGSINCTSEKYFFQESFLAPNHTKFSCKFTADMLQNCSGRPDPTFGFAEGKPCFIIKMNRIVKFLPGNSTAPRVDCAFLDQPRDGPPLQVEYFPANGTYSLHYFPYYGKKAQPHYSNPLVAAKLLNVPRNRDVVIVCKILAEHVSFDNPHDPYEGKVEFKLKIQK
T2 sequence (P27112 whole entry): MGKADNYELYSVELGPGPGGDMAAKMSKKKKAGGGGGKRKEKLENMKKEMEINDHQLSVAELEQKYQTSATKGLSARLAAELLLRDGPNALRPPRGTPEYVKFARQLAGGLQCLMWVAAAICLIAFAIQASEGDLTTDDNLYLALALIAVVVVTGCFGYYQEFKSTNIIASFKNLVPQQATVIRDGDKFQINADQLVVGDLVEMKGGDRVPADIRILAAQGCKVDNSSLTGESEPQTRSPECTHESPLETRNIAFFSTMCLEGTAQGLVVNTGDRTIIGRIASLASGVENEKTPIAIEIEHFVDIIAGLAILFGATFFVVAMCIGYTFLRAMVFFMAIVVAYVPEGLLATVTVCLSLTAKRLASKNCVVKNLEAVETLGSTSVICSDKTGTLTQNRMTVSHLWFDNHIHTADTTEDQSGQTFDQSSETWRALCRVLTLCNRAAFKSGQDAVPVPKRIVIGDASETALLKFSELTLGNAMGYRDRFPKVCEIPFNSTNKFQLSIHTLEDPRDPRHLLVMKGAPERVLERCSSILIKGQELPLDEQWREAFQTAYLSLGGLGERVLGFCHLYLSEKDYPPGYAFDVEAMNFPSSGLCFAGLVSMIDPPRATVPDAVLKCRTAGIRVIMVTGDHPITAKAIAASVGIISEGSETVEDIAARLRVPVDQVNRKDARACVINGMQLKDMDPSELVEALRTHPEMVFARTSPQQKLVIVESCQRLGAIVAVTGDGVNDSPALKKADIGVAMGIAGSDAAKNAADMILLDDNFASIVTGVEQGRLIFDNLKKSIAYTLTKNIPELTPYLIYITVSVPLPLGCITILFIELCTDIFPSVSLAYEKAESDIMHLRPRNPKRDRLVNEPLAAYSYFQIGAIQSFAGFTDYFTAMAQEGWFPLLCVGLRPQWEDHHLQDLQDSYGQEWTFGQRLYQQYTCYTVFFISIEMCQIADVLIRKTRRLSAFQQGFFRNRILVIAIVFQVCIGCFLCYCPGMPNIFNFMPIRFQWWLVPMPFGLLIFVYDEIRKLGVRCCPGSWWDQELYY
T2 sequence (P18597 whole entry partner): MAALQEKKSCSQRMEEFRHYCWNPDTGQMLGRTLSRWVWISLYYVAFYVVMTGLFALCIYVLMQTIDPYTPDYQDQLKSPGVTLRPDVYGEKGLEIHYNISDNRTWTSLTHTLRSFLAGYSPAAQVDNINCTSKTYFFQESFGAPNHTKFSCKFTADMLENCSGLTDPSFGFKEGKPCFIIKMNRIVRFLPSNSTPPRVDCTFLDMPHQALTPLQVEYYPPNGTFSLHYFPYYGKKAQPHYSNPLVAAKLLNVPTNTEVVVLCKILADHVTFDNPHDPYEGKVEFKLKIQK

COc1ccc(CCN2C(=O)CSC2c2ccc(C)c(C)c2)cc1 (centres unmarked) [compound B, 2-(3,4-dimethyphenyl)-3-[2-(4-methoxyphenyl)ethyl]-thiazolidin4-one]
resistance of PLLA membrane + phospholipids + Kv1.5 vesicles after inhibitor (Kv1.5 K+ channels [1]): 4.13±0.52 MΩ
effect on Kv1.5 K+ channel currents (I-V curve) (Kv1.5 K+ channels [2]; 200 nM and 500 nM compound B): inhibited
effect on Kv1.5 K+ current after addition of Kv1.5 vesicles (Kv1.5 K+ channels [2]; 1 μM compound B, P<0.001): inhibited
effect on potassium ion currents of membrane fused with Kv1.5 vesicles (Example 1) (Kv1.5 K+ channels [2]; concentration not given): inhibited
IC50 (Kv1.5 K+ channels [2]; sigmoidal dose-response plot, n=6, 100 mM KCl/20 mM HEPES pH 7.4, read-out: IC50, Kv1.5-mediated K+ currents expressed as ΔI at 70 mV as % maximum): 170 ± 40 nM

gramicidin D
flux across the inventive membrane [3]: 10^8 ions per second, per gramicidin D molecule
current with gramicidin D [4]: about 30 μVA
resistance with gramicidin D, PETE membranes ([5]; KCl, n=5, PL alone 39.25 MΩ): 5.41±1.11 MΩ
change of resistance with gramicidin D, PETE membranes ([5]; NMDGCl): did not change
resistance after gramicidin D, PC filters with 3, 5 and 8 μm pores ([5]; presence of K+ (100 mM KCl), P<0.005): virtually zero
resistance on addition of gramicidin D, leached PLLA membranes ([5]; presence of K+, n=6, PL alone 11.38 MΩ): 0.23±0.15 MΩ
change of resistance on addition of gramicidin D, leached PLLA membranes ([5]; presence of NMDG+): unaffected
reduction of resistance by gramicidin D, PC filters with 3, 5 and 8 μm pores ([5]; presence of NMDG+ (impermeant cation)): not

Cc1nc2c(OCc3ccccc3)cccn2c1CC#N [SCH28080]
effect on H+ flux (rate of acidification) (gastric H/K ATPase [6]): significantly reduces
effect on ATP-dependent transport of acid across the bilayer [7]: inhibited
effect on H+ flux (rate of acidification) (gastric H/K ATPase [8]; 100 μM SCH28080, hog gastric vesicles, P<0.05): significantly reduces
effect on acidification of outer well medium (representative experiment) (gastric H/K ATPase [8]; 100 μM SCH28080, hog vesicles, 5 mM MgATP, 100 μg/ml valinomycin): blocks acidification
